According to patent US5939405A, “Phosphate derivatives of diaryl 1,3,4-oxadiazolone” (priority 1999, dated 1999):

Key:
[1] = test system: non-BK native currents in the oocytes; assay: non-BK (IBTX-insensitive) native current in oocytes, voltage clamp; type: cell-based, Xenopus; conditions: at the tested concentration; current remaining in presence of 50 nM IBTX
Protocol: (§1) The ability of the compound of Example 1 to open BK channels and increase whole-cell outward (K^+) BK-mediated currents was assessed under voltage-clamp conditions by determining their ability to increase cloned mammalian (mSlo or hSlo) BK-mediated outward current heterologously expressed in Xenopus oocytes [Butler, A., et al., Science, 261, pp. 221-224 (1993); and Dworetzky, S. I., et al., Mol. Brain Res., 27, pp.189-193 (1994)]. The two BK constructs employed represent nearly structurally identical homologous proteins, and have proven to be pharmacologically identical in our tests. To isolate BK current from native (background, non-BK) current, the specific and potent BK channel-blocking toxin iberiotoxin (IBTX) [Galvez, A., et al., J. Biol. Chem,265, pp. 11083-11090 (1990)] was employed at a supramaximal concentration (50 nM). The relative contribution of BK channels current to total outward current was determined by subtraction of the current remaining in the presence of IBTX (non-BK current) from the current profiles obtained in all other experimental conditions (control, drug, and wash). […]

[2] = test system: cloned mammalian (mSlo or hSlo) BK channels; assay: BK-mediated outward current in Xenopus oocytes, two-electrode voltage clamp; type: cell-based; conditions: 1 μM; at least 5 oocytes; mSlo or hSlo expressed in Xenopus oocytes
Protocol: as §1

cortical infarct volume = assay: focal stroke model, permanent MCA and CCA occlusion; type: in vivo; conditions: 10 μg/kg intravenously, single bolus two hours after MCAO; Wistar rat; infarct measured 24 hours after MCAO; vs vehicle-treated (water) control
Protocol: To determine the ability of the compounds of the present invention to reduce cell loss resulting from neuronal ischemia, a standard focal cerebral ischemia is induced by permanent occlusion of the left middle cerebral artery (MCA) and common carotid artery (CCA) with one hour occlusion of the right CCA in the Wistar rat. The surgeries are performed using the sub-temporal approach of A. Tamura, et al., J. Cereb. Blood Flow Metab., 1, pp. 53-60, (1981) and its modifications [K. Osborne, et al., J. Neurol Neurosurg. Psychiatry, 50, pp. 402-410 (1987) and S. Menzies, et al., Neurosurgery, 31, pp. 100-107, (1992).]
The compound of Example 1 was evaluated in the focal stroke model involving permanent occlusion of the left MCA (MCAO) and CCA (CCAO) and temporary occlusion of the right CCA in the Wistar rat. This procedure results in a reliably large neocortical infarct volume that is measured by means of vital dye exclusion in serial slices through the brain 24 hours after MCAO. In the present test, compounds were administered using an i.v. or i.p. route of administration two hours after occlusion.

[3] = rapid screen of prodrug hydrolysis and drug release in plasma; type: in vitro ADME; conditions: 10 ug/mL in fresh rat plasma at 37° C.; stock 1 mg/mL in PEG-400; analysis 5 minutes after incubation; HPLC
Protocol: A rapid screen to determine the ability of prodrugs to hydrolyze and release the drug (compound of Example 1) is conducted as follows. A 1 mg/mL stock solution of the prodrug is prepared in distilled water or acetonitrile or PEG-400. Plasma from freshly collected rat or human blood is used in this assay. To 1 mL of plasma at 37° C. was added 10 μL of stock solution of prodrug and mixed gently. Immediately after the mixing, 100 μL of plasma was removed and quenched with 300 μL of acetontrile (Zero time sample). Samples were also obtained at 30 minutes and quenched immediately. The quenched samples were centrifuged to obtain a clear supernatant for analysis. The stock solution, T=0 and T=30 samples were analyzed by a HPLC assay that separates the drug from the prodrug. Based on the relative peak areas of prodrug and drug in these samples, different prodrugs are characterized as fast, moderate and slow release agents. For example, in this model, the compound of Example 6 was dissolved in PEG-400 at a concentration of 1 mg/mL and incubated at 10 ug/mL in fresh rat plasma at 37° C.

| Structure (SMILES) | effect on non-BK native currents in the oocytes [1] | BK current, % of control of IBTX-sensitive current [2] | reduction of cortical infarct volume (cortical infarct volume) | conversion of prodrug to the drug (compound of Example 1) [3] |
| --- | --- | --- | --- | --- |
| O=c1oc(-c2ccc(C(F)(F)F)cc2)nn1Cc1cc(Cl)ccc1O [Example 1, 3-[(5-Chloro-2-hydroxyphenyl)methyl]-5-[4-(trifluoromethyl)phenyl]-1,3,4-oxadiazol-2(3H)-one] | did not effect non-BK native currents | 126 % of control | about 18% | – |
| O=C(COP(=O)(O)O)Oc1ccc(Cl)cc1Cn1nc(-c2ccc(C(F)(F)F)cc2)oc1=O [Example 6, 3-[[5-Chloro-2-[[[(phosphonooxy)methyl]carbonyl]oxy]phenyl]methyl]-5-[4-(trifluoromethyl)phenyl]-1,3,4-oxadiazol-2(3H)-one] | – | – | – | conversion of the compound of Example 6 to the compound of Example 1 |
